Source: ChEMBL document CHEMBL5370636, “Asteriquinones from Aspergillus sp. GZWMJZ-258 and Their Derivatives” (J Nat Prod, 2023)

Legend:
[1] = test system: MV4-11; test: Cytotoxicity against human MV4-11 cells assessed as cell growth inhibition incubated for 72 hrs by Cell Titer-Glo assay; type: functional, cell-based; conditions: MV4-11, 72 h
[2] = Selectivity index, ratio of IC50 for human L02 cells to IC50 for human MV4-11 cells; conditions: L02 cells and MV4-11 cells
[3] = Cytotoxicity against human L02 cells assessed as cell growth inhibition incubated for 72 hrs by Cell Titer-Glo assay
[4] = test system: MV4-11; test: Induction of apoptosis in human MV4-11 cells assessed as early apoptotic cells at 0.1 uM incubated for 24 hrs by Annexin V-FITC/PI staining based flow cytometry (reference value: 0.015 to 0.39 %); type: functional
[5] = test system: MV4-11; test: Induction of cell cycle arrest in human MV4-11 cells assessed as accumulation of cells at G0/G1 phase at 0.1 uM incubated for 24 hrs by PI staining based flow cytometry (reference value: 57.44 %); type: functional
[6] = test system: MV4-11; test: Induction of apoptosis in human MV4-11 cells assessed as viable cells at 0.1 uM incubated for 24 hrs by Annexin V-FITC/PI staining based flow cytometry (reference value: 98.58 to 99.04%); type: functional; conditions: read-out: Activity
[7] = test system: MV4-11; test: Induction of apoptosis in human MV4-11 cells assessed as necrotic cells at 0.1 uM incubated for 24 hrs by Annexin V-FITC/PI staining based flow cytometry (reference value: 0.05 to 0.24 %); type: functional
[8] = test system: MV4-11; test: Induction of apoptosis in human MV4-11 cells assessed as late apoptotic cells at 0.1 uM incubated for 24 hrs by Annexin V-FITC/PI staining based flow cytometry (reference value: 0.53 to 1.03 %); type: functional
[9] = test system: MV4-11; test: Induction of cell cycle arrest in human MV4-11 cells assessed as accumulation of cells at G2/M phase at 0.1 uM incubated for 24 hrs by PI staining based flow cytometry (reference value: 18.56 %); type: functional
[10] = test system: MV4-11; test: Induction of cell cycle arrest in human MV4-11 cells assessed as accumulation of cells at S phase at 0.1 uM incubated for 24 hrs by PI staining based flow cytometry (reference value: 27.58 %); type: functional
[11] = test system: MV4-11; test: Downregulation of FLT-3 protein expression in human MV4-11 cells incubated for 24 hrs by Western blot analysis; type: functional, cell-based; conditions: dose 100-400 nM

## COc1c(OC)c(-c2cn(CCN3CCOCC3)c3ccccc23)c(OC)c(OC)c1-c1c[nH]c2ccccc12
[1]
  IC50: 0.48 µM
[2]
  selectivity ratio: > 210
[3]
  IC50 at 72 h: > 100 µM

## COc1c(OC)c(-c2c[nH]c3ccccc23)c(OC)c(OC)c1-c1c[nH]c2ccccc12
[1]
  IC50: 5.9 µM
[2]
  selectivity ratio: > 17
[3]
  IC50 at 72 h: > 100 µM

## COc1c(OC)c(-c2c[nH]c3ccc(OCC(=O)c4ccc(Cl)c(Cl)c4)cc23)c(OC)c(OC)c1-c1c[nH]c2ccccc12
[1]
  IC50: 0.99 µM
[2]
  selectivity ratio: > 100
[3]
  IC50 at 72 h: > 100 µM

## COc1c(OC)c(-c2c[nH]c3ccc(O)cc23)c(OC)c(OC)c1-c1c[nH]c2ccccc12
[1]
  IC50: 12 µM
[2]
  selectivity ratio: > 8
[3]
  IC50 at 72 h: > 100 µM

## COc1c(OC)c(-c2c[nH]c3ccc(OCCN4CCOCC4)cc23)c(OC)c(OC)c1-c1c[nH]c2ccccc12
[1]
  IC50: 0.45 µM
[2]
  selectivity ratio: > 220
[3]
  IC50 at 72 h: > 100 µM

## COc1c(OC)c(-c2c[nH]c3ccc(OC4CCCC4)cc23)c(OC)c(OC)c1-c1c[nH]c2ccccc12
[1]
  IC50: 0.14 µM
[4]
  Activity: 19.09%
[2]
  selectivity ratio: > 710
[5]
  Activity: 49.99%
[6]
  viability at 0.1 µM: 74.7%
[7]
  Activity: 0%
[8]
  Activity: 4.36%
[9]
  Activity: 15.55%
[10]
  Activity: 36.06%
[11]
  Activity: Dose-Dependent Effect
[3]
  IC50 at 72 h: > 100 µM

## COc1c(O)c(-c2c[nH]c3ccccc23)c(CC=C(C)C)c(OC)c1-c1c[nH]c2ccccc12
[1]
  IC50: 1.8 µM
[2]
  selectivity ratio: 9
[3]
  IC50 at 72 h: 17 µM

## COc1c(OC)c(-c2cn(C3CCCC3)c3ccccc23)c(OC)c(OC)c1-c1c[nH]c2ccccc12
[1]
  IC50: 0.84 µM
[2]
  selectivity ratio: > 120
[3]
  IC50 at 72 h: > 100 µM

## COc1c(O)c(-c2c[nH]c3ccccc23)c2c(c1-c1c[nH]c3ccccc13)OC(C)(C)C=C2
[1]
  IC50: 1.2 µM
[2]
  selectivity ratio: 9
[3]
  IC50 at 72 h: 11 µM

## COc1ccc2[nH]cc(-c3c(OC)c(OC)c(-c4c[nH]c5ccccc45)c(OC)c3OC)c2c1
[1]
  IC50: 6.5 µM
[2]
  selectivity ratio: > 15
[3]
  IC50 at 72 h: > 100 µM

## COc1c(OC)c(-c2c[nH]c3ccc(OCC(=O)c4ccccc4)cc23)c(OC)c(OC)c1-c1c[nH]c2ccccc12
[1]
  IC50: 1.3 µM
[2]
  selectivity ratio: > 74
[3]
  IC50 at 72 h: > 100 µM

## COc1ccc2[nH]cc(-c3c(OC)c(OC)c(-c4c[nH]c5ccc(O)cc45)c(OC)c3OC)c2c1
[1]
  IC50: 1.3 µM
[2]
  selectivity ratio: > 75
[3]
  IC50 at 72 h: > 100 µM

## CCOc1ccc2[nH]cc(-c3c(OC)c(OC)c(-c4c[nH]c5ccccc45)c(OC)c3OC)c2c1
[1]
  IC50: 0.2 µM
[2]
  selectivity ratio: > 500
[3]
  IC50 at 72 h: > 100 µM

## COc1c(OC)c(-c2c[nH]c3ccc(OCCO[C@@H]4O[C@H](CO)[C@@H](O)[C@H](O)[C@H]4O)cc23)c(OC)c(OC)c1-c1c[nH]c2ccccc12
[1]
  IC50: 0.26 µM
[4]
  Activity: 15.78%
[2]
  selectivity ratio: > 380
[5]
  Activity: 52.91%
[6]
  viability at 0.1 µM: 78%
[7]
  Activity: 0%
[8]
  Activity: 3.67%
[9]
  Activity: 17.42%
[10]
  Activity: 30.68%
[11]
  Activity: Dose-Dependent Effect
[3]
  IC50 at 72 h: > 100 µM
